This experiment relates to C170HM2 human colorectal tumor cells. Nature of the experiment: C170HM2 colon cancer metastasis to the liver model. The conditions noted are these: 25 mg/kg i.v. cycled on days 1, 3, 5, 7. Type of experiment: in vivo, MF1 nude (nu/nu) athymic mice. On the procedure:
Liver metastasis was initiated by intraperitoneal injection of C170HM2 human colorectal tumor cells into male MF1 nude (nu/nu) athymic mice. 5FU/leucovorin was used as a positive control.
C170HM2 cells were maintained in vitro in RPMI culture medium (Sigma) containing 10% (v/v) heat inactivated fetal bovine serum and 2 mM L-glutamine at 37° C. in 5% CO2 and humidified conditions. Cells from sub-confluent monolayers were harvested with 0.025% EDTA, washed in culture medium and re-suspended in sterile phosphate buffered saline, pH 7.4 (PBS) for in vivo administration. 1.5×10^6 cells in a volume of 1 ml were injected intraperitoneally into 65 mice, and the mice were allocated into treatment groups as below.
Group 1: n=10 Vehicle control Group 2: n=10 25 mg/kg 5FU/leucovorin i.v. cycled on days 1, 3, 5, 7 Group 3: n=10 5 mg/kg compound 1 (Dalteparin) s.c. once daily Group 4: n=10 5 mg/kg compound 2 (M402) s.c. once daily Group 5: n=10 15 mg/kg compound 2 s.c. once daily Group 6: n=10 30 mg/kg compound 2 s.c. once daily Group 7: n=5 Untreated
Treatment was initiated on day 1 following cell injection and continued until day 35 or until the clinical condition of the animal required termination. Groups 5 and 6 missed one dose on day 5. […]
The study was terminated on day 35, and the tumors in the liver were excised and weighed. The numbers of lung nodules are also counted.

5FU/leucovorin: the Mean tumor area (day 35) was found to be 13.12 mm^2. The Mean tumor weight (liver tumors day 35) is reported as 0.037 g.

These data come from US20120183976A1, “METHODS OF ASSESSING ACTIVITY OF A POLYSACCHARIDE COMPOSITION” (priority 2009, published 2012).
